Data taken from ChEMBL document CHEMBL6092147, “Design of inhibitors of SARS-CoV-2 papain-like protease deriving from GRL0617: Structure-activity relationships” (Bioorg Med Chem, 2024).
pIC50, pKi: −log10 of the molar value.

Tests used:
[1] = biological target: T1, Replicase polyprotein 1ab (Severe acute respiratory syndrome coronavirus 2, UniProt P0DTD1); assay: Inhibition of SARS-CoV-2 papain-like protease
[2] = biological target: T1, Replicase polyprotein 1ab; assay: Inhibition of SARS-CoV-2 papain-like protease (PLpro) by FRET analysis
[3] = biological target: T1, Replicase polyprotein 1ab; assay: Inhibition of SARS-CoV-2 Main protease
[4] = biological target: T1, Replicase polyprotein 1ab; assay: Inhibition of SARS-CoV-2 Main protease extracted from Escherichia coli BL21 (DE3) cells measured for 60 mins by FRET based analysis
[5] = biological target: T1, Replicase polyprotein 1ab; assay: Inhibition of SARS-CoV2 PLpro extracted from Escherichia coli using Z-RLRGG-AMC as substrate incubated for 30 mins by fluorescence based analysis
[6] = biological target: T1, Replicase polyprotein 1ab; assay: Inhibition of SARS-CoV-2 papain-like protease (PLpro) extracted from Escherichia coli BL21 (DE3) cells using RLRGG-AMC as substrate preincubated for 10 mins followed by substrate addition measured for 35 mins by FRET analysis
[7] = biological target: T1, Replicase polyprotein 1ab; assay: Binding affinity to SARS-CoV-2 papain-like protease extracted from Escherichia coli BL21 (DE3) cells assessed as inhibition constant by SPR analysis
[8] = biological target: T1, Replicase polyprotein 1ab; assay: Inhibition of SARS-CoV-2 papain-like protease (PLpro) by enzymatic assay

Compound: C#CC(=O)NNC(=O)CCc1ccccc1C(=O)N[C@H](C)c1cccc2ccccc12
- pIC50 [1]: 7.05

Compound: Cc1ccc(NC2CCN(C)CC2)cc1C(=O)N[C@H](C)c1cc(-c2cccs2)cc(-c2cccs2)c1
- pIC50 [2]: 6.74

Compound: Cc1ccc(NC(=O)CN)cc1C(=O)N[C@H](C)c1cccc2ccccc12
- pIC50 [3]: 5.48

Compound: Cc1ccc(NC[C@H]2CCCN2C)cc1C(=O)N[C@H](C)c1cccc2ccccc12
- pIC50 [4]: 5.82

Compound: Cc1ccc(NC[C@H]2CCCCN2C)cc1C(=O)N[C@H](C)c1cccc2ccccc12
- pIC50 [4]: 5.82

Compound: Cc1ccc(NCCN2CCCCC2)cc1C(=O)N[C@H](C)c1cc(-c2cccs2)cc(-c2cccs2)c1
- pIC50 [2]: 6.96

Compound: Cc1ccc(N2CCN(CCC(=O)O)CC2)cc1C(=O)NC1(c2cccc3ccccc23)CC1
- pIC50 [1]: 6.96

Compound: Cc1ccc(NC(=O)[C@@H](N)CCCCN)cc1C(=O)N[C@H](C)c1cccc2ccccc12
- pIC50 [5]: 5.77

Compound: Cc1ccc(N2CCNCC2)cc1C(=O)NC1(c2cccc3ccccc23)CC1
- pIC50 [1]: 7.52

Compound: Cc1ccc(NC2CNC2)cc1C(=O)N[C@H](C)c1cc(-c2cccs2)cc(-c2cccs2)c1
- pIC50 [2]: 6.77

Compound: Cc1ccc(N2CCN(C)CC2)cc1C(=O)NC1(c2cccc3ccccc23)CC1
- pIC50 [1]: 7.70

Compound: Cc1ccc(Nc2ccncc2)cc1C(=O)N[C@H](C)c1cccc2ccccc12
- pIC50 [5]: 5.77

Compound: Cc1ccc(NCC2CNC2)cc1C(=O)N[C@H](C)c1cccc2ccccc12
- pIC50 [4]: 6.00

Compound: Cc1ccc(NC[C@@]2(C)CCCN2)cc1C(=O)N[C@H](C)c1cccc2ccccc12
- pIC50 [4]: 5.96

Compound: Cc1ccc(NC(=O)CN2CCCCC2)cc1C(=O)N[C@H](C)c1cccc2ccccc12
- pIC50 [6]: 5.74

Compound: Cc1ccc(N2C[C@H]3C[C@@H](C2)N3)cc1C(=O)NC1(c2cccc3ccccc23)CC1
- pIC50 [1]: 7.70

Compound: Cc1ccc(NC(=O)C2CN(C)C2)cc1C(=O)N[C@H](C)c1cccc2ccccc12
- pIC50 [5]: 5.81

Compound: Cc1ccc(NC(=O)CCN)cc1C(=O)N[C@H](C)c1cccc2ccccc12
- pIC50 [6]: 5.74

Compound: Cc1ccc(NC(=O)[C@H]2CCCCN2)cc1C(=O)N[C@H](C)c1cccc2ccccc12
- pIC50 [3]: 6.52

Compound: Cc1ccc(OCCN)cc1C(=O)N[C@H](C)c1cc(-c2cccs2)cc(-c2cccs2)c1
- pIC50 [2]: 7.22

Compound: Cc1ccc(NC(=O)[C@@H](N)CN)cc1C(=O)N[C@H](C)c1cccc2ccccc12
- pIC50 [5]: 5.80

Compound: Cc1ccc(NC(=O)NCCN)cc1C(=O)N[C@H](C)c1cccc2ccccc12
- pIC50 [4]: 5.96

Compound: Cc1ccc(OCCN(C)C)cc1C(=O)N[C@H](C)c1cc(-c2cnn(C)c2)cc(-c2cncs2)c1
- pKi [7]: 7.52

Compound: Cc1ccc(OCCN(C)C)cc1C(=O)N[C@H](C)c1cc(-c2cnn(C)c2)cc(-c2cnn(CCN3CCOCC3)c2)c1
- pKi [7]: 7.70

Compound: Cc1ccc(NC[C@H]2CCCCN2)cc1C(=O)N[C@H](C)c1cccc2ccccc12
- pIC50 [3]: 5.85

Compound: Cc1ccc(NC(N)=O)cc1C(=O)N[C@H](C)c1cccc2ccccc12
- pIC50 [3]: 5.42

Compound: Cc1ccc(NC(=O)CN2CCCC2)cc1C(=O)N[C@H](C)c1cccc2ccccc12
- pIC50 [4]: 5.96

Compound: Cc1ccc(NC2CCN(C[C@@H]3CCCN3)CC2)cc1C(=O)N[C@H](C)c1cccc2ccccc12
- pIC50 [4]: 6.00

Compound: Cc1ccc(NC2CCN(S(C)(=O)=O)CC2)cc1C(=O)N[C@H](C)c1cccc2ccccc12
- pIC50 [6]: 5.72

Compound: Cc1ccc(OCCN2CCOCC2)cc1C(=O)N[C@H](C)c1cc(-c2cccs2)cc(-c2cccs2)c1
- pIC50 [2]: 6.44

Compound: Cc1ccc(OCCN(C)C)cc1C(=O)N[C@H](C)c1cc(-c2cnn(C)c2)cc(-c2cnn(C(C)C)c2)c1
- pKi [7]: 7.40

Compound: Cc1ccc(OCCN(C)C)cc1C(=O)N[C@H](C)c1cc(-c2cnn(C)c2)cc(-c2ccn(C)n2)c1
- pKi [7]: 7.40

Compound: Cc1ccc(N2CC3CN(C)CC3C2)cc1C(=O)NC1(c2cccc3ccccc23)CC1 (stereo not drawn)
- pIC50 [1]: 6.89

Compound: Cc1ccc(N2CCN(C(=N)N)CC2)cc1C(=O)NC1(c2cccc3ccccc23)CC1
- pIC50 [1]: 6.85

Compound: Cc1ccc(NC[C@]2(C)CCCN2)cc1C(=O)N[C@H](C)c1cccc2ccccc12
- pIC50 [4]: 5.92

Compound: Cc1ccc(NC(=O)[C@@H](CN)NC[C@@H]2CCCN2)cc1C(=O)N[C@H](C)c1cccc2ccccc12
- pIC50 [6]: 5.72

Compound: Cc1ccc(N)cc1C(=O)NC1(c2cccc3ccccc23)CC1
- pIC50 [1]: 6.74

Compound: Cc1ccc(NC(=O)CN(C)C)cc1C(=O)N[C@H](C)c1cc(-c2cccs2)cc(-c2cccs2)c1
- pIC50 [2]: 6.96

Compound: CCn1ccc(-c2cc(-c3ccn(CC(F)F)n3)cc([C@@H](C)NC(=O)c3cc(OCCN(C)C)ccc3C)c2)n1
- pIC50 [8]: 6.66

Compound: Cc1ccc(OCCN(C)C)cc1C(=O)N[C@H](C)c1cc(-c2cnn(C)c2)cc(-c2cnn(C(F)F)c2)c1
- pKi [7]: 7.52

Compound: CNCCCNc1ccc(C)c(C(=O)N[C@H](C)c2cccc3ccccc23)c1
- pIC50 [5]: 5.82

Compound: Cc1ccc(NC[C@@H](N)CNC[C@H]2CCCN2)cc1C(=O)N[C@H](C)c1cccc2ccccc12
- pIC50 [4]: 5.96

Compound: Cc1ccc(NC(=O)N2CCCN(C)CC2)cc1C(=O)N[C@H](C)c1cccc2ccccc12
- pIC50 [5]: 5.82

Compound: Cc1ccc(NCC2CNC2)cc1C(=O)N[C@H](C)c1cc(-c2cccs2)cc(-c2cccs2)c1
- pIC50 [2]: 6.47

Compound: Cc1ccc(OCCN(C)C)cc1C(=O)N[C@H](C)c1cc(-c2cnn(CF)c2)cc(-c2ccn(C)n2)c1
- pKi [7]: 7.52

Compound: Cc1ccc(NC(=O)CN)cc1C(=O)N[C@H](C)c1cc(-c2cccs2)cc(-c2cccs2)c1
- pIC50 [2]: 6.85

Compound: Cc1ccc(NC(=O)C2CCNCC2)cc1C(=O)N[C@H](C)c1cc(-c2cccs2)cc(-c2cccs2)c1
- pIC50 [2]: 6.79

Compound: CCn1ccc(-c2cc(-c3cnn(C(C)C)c3)cc([C@@H](C)NC(=O)c3cc(OCCN(C)C)ccc3C)c2)n1
- pIC50 [8]: 6.70

Compound: Cc1ccc(NC[C@@H]2CCCCN2C)cc1C(=O)N[C@H](C)c1cccc2ccccc12
- pIC50 [4]: 5.85

Compound: Cc1ccc(NC[C@H]2CCCN2)cc1C(=O)N[C@H](C)c1cccc2ccccc12
- pIC50 [3]: 6.05

Compound: Cc1ccc(NC(=O)[C@@]2(C)CCCN2)cc1C(=O)N[C@H](C)c1cccc2ccccc12
- pIC50 [6]: 5.74

Compound: Cc1ccc(NC(=O)C2(N)CC2)cc1C(=O)N[C@H](C)c1cccc2ccccc12
- pIC50 [3]: 5.42

Compound: Cc1ccc(NC(=O)[C@H]2CCCN2)cc1C(=O)N[C@H](C)c1cccc2ccccc12
- pIC50 [4]: 5.85

Compound: Cc1ccc(OCCN(C)C)cc1C(=O)N[C@H](C)c1cc(-c2cnn(C)c2)cc(-c2cnn(C3CC3)c2)c1
- pKi [7]: 7.52

Compound: CC(=O)Nc1cccc(Nc2ccc(C)c(C(=O)NC3(c4cccc5ccccc45)CC3)c2)c1
- pIC50 [1]: 6.30

Compound: Cc1ccc(OCCN(C)C)cc1C(=O)N[C@H](C)c1cc(-c2cnn(CCN3CCOCC3)c2)cc(-c2ccn(C)n2)c1
- pKi [7]: 7.40

Compound: Cc1ccc(N2CCNC(C)C2)cc1C(=O)NC1(c2cccc3ccccc23)CC1 (stereo not drawn)
- pIC50 [1]: 7.15

Compound: Cc1ccc(OCCN2CCCC2)cc1C(=O)N[C@H](C)c1cc(-c2cccs2)cc(-c2cccs2)c1
- pIC50 [2]: 7.15

Compound: Cc1ccc(OCCN(C)C)cc1C(=O)N[C@H](C)c1cc(-c2cccs2)cc(-c2ccc(CN)s2)c1
- pKi [7]: 7.15

Compound: Cc1ccc(N2CC3CNCC3C2)cc1C(=O)NC1(c2cccc3ccccc23)CC1 (stereo not drawn)
- pIC50 [1]: 7.52

Compound: Cc1ccc(NC[C@@H]2CCCN2)cc1C(=O)N[C@H](C)c1cccc2ccccc12
- pIC50 [3]: 6.10

Compound: Cc1ccc(NC2CCN(C[C@H]3CCCN3)CC2)cc1C(=O)N[C@H](C)c1cccc2ccccc12
- pIC50 [6]: 5.74

Compound: Cc1ccc(NC(=O)[C@@H](N)CCN)cc1C(=O)N[C@H](C)c1cccc2ccccc12
- pIC50 [6]: 5.72

Compound: Cc1ccc(NC(=O)[C@@H]2CCCCN2)cc1C(=O)N[C@H](C)c1cccc2ccccc12
- pIC50 [3]: 5.89

Compound: Cc1ccc(NC(=O)N2CCN(C)CC2)cc1C(=O)N[C@H](C)c1cccc2ccccc12
- pIC50 [5]: 5.80

Compound: Cc1ccc(N2CCN(CC(=O)O)CC2)cc1C(=O)NC1(c2cccc3ccccc23)CC1
- pIC50 [1]: 7.40

Compound: Cc1ccc(OCC[N+](C)(C)C)cc1C(=O)N[C@H](C)c1cc(-c2cccs2)cc(-c2cccs2)c1
- pIC50 [2]: 6.89

Compound: Cc1ccc(NC[C@@H]2CCCCN2)cc1C(=O)N[C@H](C)c1cccc2ccccc12
- pIC50 [3]: 6.05

Compound: Cc1ccc(NC[C@@H]2CCCN2C)cc1C(=O)N[C@H](C)c1cccc2ccccc12
- pIC50 [3]: 6.05

Compound: COCn1cc(-c2cc(-c3cnn(C(F)F)c3)cc([C@@H](C)NC(=O)c3cc(OCCN(C)C)ccc3C)c2)cn1
- pKi [7]: 7.10

Compound: Cc1ccc(NCC(C)(C)N)cc1C(=O)N[C@H](C)c1cccc2ccccc12
- pIC50 [6]: 5.74

Compound: Cc1ccc(NC(=O)CNCC2CC2)cc1C(=O)N[C@H](C)c1cccc2ccccc12
- pIC50 [4]: 5.89

Compound: Cc1ccc(N)cc1C(=O)N[C@H](C)c1cc(-c2cccs2)cc(-c2cccs2)c1
- pIC50 [2]: 6.77

Compound: Cc1ccc(NCC2(C)CCN2)cc1C(=O)N[C@H](C)c1cccc2ccccc12 (mixture of isomers)
- pIC50 [4]: 6.10

Compound: Cc1ccc(NC(=O)C2CNCCN2)cc1C(=O)N[C@H](C)c1cccc2ccccc12 (mixture of isomers)
- pIC50 [4]: 5.82

Compound: Cc1ccc(NCC2CN(C)CCN2)cc1C(=O)N[C@H](C)c1cccc2ccccc12 (mixture of isomers)
- pIC50 [4]: 5.82

Compound: Cc1ccc(NC(=O)C2CN(C)CCN2C)cc1C(=O)N[C@H](C)c1cccc2ccccc12 (mixture of isomers)
- pIC50 [6]: 5.77

Compound: Cc1ccc(NC(=O)C2CN(C(C)C)CCN2)cc1C(=O)N[C@H](C)c1cccc2ccccc12 (mixture of isomers)
- pIC50 [4]: 5.85

Compound: Cc1ccc(NCC2CCN2)cc1C(=O)N[C@H](C)c1cccc2ccccc12 (mixture of isomers)
- pIC50 [3]: 6.05

Compound: Cc1ccc(NCC2CCNC2)cc1C(=O)N[C@H](C)c1cccc2ccccc12 (mixture of isomers)
- pIC50 [5]: 5.82

Compound: Cc1ccc(NC(=O)C2CCN2)cc1C(=O)N[C@H](C)c1cccc2ccccc12 (mixture of isomers)
- pIC50 [6]: 5.74

Compound: Cc1ccc(NC(=O)C2CN(C)CCN2)cc1C(=O)N[C@H](C)c1cccc2ccccc12 (mixture of isomers)
- pIC50 [5]: 5.77

Compound: Cc1ccccc1C(=O)NC(C)c1cccc2ccccc12 (racemic)
- pIC50 [1]: 4.63
